# According to ChEMBL document CHEMBL4346660, “Cryptolepine and aromathecin based mimics as potent G-quadruplex-binding, DNA-cleavage and anticancer agents: Design, synthesis and DNA targeting-induced apoptosis” (Eur J Med Chem, 2019):
# Active and inactive are the calls of the source. The calls are words filed in the database; no cut-off is given here.
# Columns and labels:
# MGC-803 [1] = assay: Antiproliferative activity against human MGC803 cells assessed as inhibition of cell proliferation at 10 uM measured for 12 to 72 hrs by MTT assay relative to control; type: functional
# L02 = assay: Cytotoxicity against human HL7702 cells assessed as reduction in cell viability incubated for 48 hrs by MTT assay; type: cell-based; conditions: L02, 48 h
# Calf thymus DNA [2] = assay: Inhibition of ethidium bromide binding to calf thymus DNA assessed as Stern-Volmer quenching constant by fluorescence spectra analysis; type: nucleic-acid assay; conditions: Bos taurus
# DNA = assay: Binding affinity to Escherichia coli supercoiled pBR322 DNA assessed as DNA intercalation at 0.5 to 10 uM after 3 hrs by ethidium bromide staining-based agarose gel electrophoresis analysis; type: nucleic-acid assay
# Quadruplex DNA [3] = assay: Binding affinity to human HTG21 G-quadruplex DNA assessed as Stern-Volmer quenching constant by fluorometric titration assay; type: nucleic-acid assay
# Quadruplex DNA [4] = assay: Binding affinity to human Pu27 G-quadruplex DNA assessed as Stern-Volmer quenching constant by fluorometric titration assay; type: nucleic-acid assay
# Quadruplex DNA [5] = assay: Binding affinity to human Pu27 G-quadruplex DNA at 10 uM incubated for 5 mins by CD spectroscopy; type: nucleic-acid assay
# Quadruplex DNA [6] = assay: Binding affinity to human c-Kit-1 G-quadruplex DNA at 10 uM incubated for 5 mins by CD spectroscopy; type: nucleic-acid assay
# MGC-803 [7] = assay: Cell cycle arrest in human MGC803 cells assessed as accumulation of cells at S phase at 0.5 uM incubated for 48 hrs by propidium iodide staining based flow cytometry (reference value: 32.97%); type: functional
# MGC-803 [8] = assay: Cell cycle arrest in human MGC803 cells assessed as accumulation of cells at S phase at 1 uM incubated for 48 hrs by propidium iodide staining based flow cytometry (reference value: 32.97%); type: functional
# MGC-803 [9] = assay: Cell cycle arrest in human MGC803 cells assessed as accumulation of cells at G2/M phase at 0.5 uM incubated for 48 hrs by propidium iodide staining-based flow cytometry (reference value: 13.07%); type: functional
# MGC-803 [10] = assay: Cell cycle arrest in human MGC803 cells assessed as accumulation of cells at G2/M phase at 1 uM incubated for 48 hrs by propidium iodide staining-based flow cytometry (reference value: 13.07%); type: functional
# MGC-803 [11] = assay: Cell cycle arrest in human MGC803 cells assessed as accumulation of cells at G2/M phase at 2.5 uM incubated for 48 hrs by propidium iodide staining-based flow cytometry (reference value: 13.07%); type: functional
# MGC-803 [12] = assay: Cell cycle arrest in human MGC803 cells assessed as accumulation of cells at G1 phase at 0.5 uM incubated for 48 hrs by propidium iodide staining-based flow cytometry (reference value: 53.96%); type: functional
# MGC-803 [13] = assay: Cell cycle arrest in human MGC803 cells assessed as down regulation of cyclin B1 expression at 0.5 to 2.5 uM incubated for 24 hrs by Western blot analysis; type: functional, cell-based
# MGC-803 [14] = assay: Cell cycle arrest in human MGC803 cells assessed as down regulation of CDK2 expression at 0.5 to 2.5 uM incubated for 24 hrs by immunoblot analysis; type: functional, cell-based
# MGC-803 [15] = assay: Cell cycle arrest in human MGC803 cells assessed as change in cyclin A2 expression at 0.5 to 2.5 uM incubated for 24 hrs by immunoblot analysis; type: functional, cell-based
# MGC-803 [16] = assay: Cell cycle arrest in human MGC803 cells assessed as change in cyclin E2 expression at 0.5 to 2.5 uM incubated for 24 hrs by immunoblot analysis; type: functional, cell-based
# MGC-803 [17] = assay: Induction of apoptosis in human MGC803 cells assessed as viable cells at 0.5 uM incubated for 24 hrs by Annexin V-FITC/propidium iodide staining based flow cytometry (reference value: 96.53+/-2.11%); type: functional; conditions: MGC-803, 24 h, read-out: Activity
# MGC-803 [18] = assay: Induction of apoptosis in human MGC803 cells assessed as early apoptotic cells at 0.5 uM incubated for 24 hrs by Annexin V-FITC/propidium iodide staining based flow cytometry (reference value: 0.97 +/- 0.10 %); type: functional
# MGC-803 [19] = assay: Induction of apoptosis in human MGC803 cells assessed as early apoptotic cells at 2.5 uM incubated for 24 hrs by Annexin V-FITC/propidium iodide staining based flow cytometry (reference value: 0.97 +/- 0.10 %); type: functional
# MGC-803 [20] = assay: Induction of apoptosis in human MGC803 cells assessed as late apoptotic cells at 2.5 uM incubated for 24 hrs by Annexin V-FITC/propidium iodide staining based flow cytometry (reference value: 0.69 +/- 0.05 %); type: functional
# MGC-803 [21] = assay: Induction of apoptosis in human MGC803 cells assessed as necrotic cells at 0.5 uM incubated for 24 hrs by Annexin V-FITC/propidium iodide staining based flow cytometry (reference value: 1.81 +/- 0.09 %); type: functional
# MGC-803 [22] = assay: Induction of apoptosis in human MGC803 cells assessed as necrotic cells at 1 uM incubated for 24 hrs by Annexin V-FITC/propidium iodide staining based flow cytometry (reference value: 1.81 +/- 0.09 %); type: functional
# MGC-803 [23] = assay: Induction of apoptosis in human MGC803 cells assessed as formation of apoptotic bodies at 2.5 uM after 24 hrs by Hoechst 33258 staining-based fluorescence microscopic method; type: functional, cell-based
# MGC-803 [24] = assay: Induction of apoptosis in human MGC803 cells assessed as appearance of irregular cell shape at 2.5 uM after 24 hrs by Hoechst 33258 staining-based fluorescence microscopic method; type: functional
# MGC-803 [25] = assay: Induction of apoptosis in human MGC803 cells assessed as increase in Bim levels at 0.5 to 2.5 uM after 24 hrs by Western blot analysis; type: functional, cell-based
# MGC-803 [26] = assay: Induction of apoptosis in human MGC803 cells assessed as activated caspase-9 level at 2.5 uM after 24 hrs by FITC staining-based flow cytometric analysis (Rvb= 3.14%); type: functional
# MGC-803 [27] = assay: Induction of apoptosis in human MGC803 cells assessed as increase in AIF expression at 0.5 to 2.5 uM after 24 hrs by Western blot analysis; type: functional, cell-based
# MGC-803 [28] = assay: Induction of apoptosis in human MGC803 cells assessed as increase in intracellular calcium release incubated for 24 hrs by […] AM dye-based flow cytometric analysis; type: functional, cell-based
# MGC-803 [29] = assay: Antitumor activity against human MGC803 cells xenografted in BALB/C mouse assessed as tumor growth inhibition at 6 mg/kg, ip administered every other day for 2 weeks measured during compound dosing relative to control; type: functional; conditions: MGC-803, ip, 336 h, read-out: TGI
# [30] = Toxicity in human MGC803 cell xenografted BALB/C mouse assessed as decrease in body weight at 6 to 12 mg/kg, ip administered every other day for 2 weeks measured during compound dosing; type: organism-based; conditions: in vivo, 336 h
# Calf thymus DNA [31] = assay: Binding affinity to calf thymus DNA assessed as blue shift in maximum absorption at 10:1 compound to DNA ratio incubated for 5 mins by UV-Vis spectroscopy; type: nucleic-acid assay; conditions: Bos taurus
# MGC-803 [32] = assay: Cell cycle arrest in human MGC803 cells assessed as accumulation of cells at G1 phase at 2.5 uM incubated for 48 hrs by propidium iodide staining-based flow cytometry (reference value: 53.96%); type: functional
# MGC-803 [33] = assay: Induction of mitochondrial membrane potential loss in human MGC803 cells at 0.5 to 2.5 uM measured after 24 by JC1 staining-based microscopic analysis; type: functional, cell-based
structure (smiles),measurement,setting,value
CN(C)CCCNc1c2c(nc3ccc(F)cc13)-c1ccccc1C2,inhibition at 10 µM,MGC-803 [1],40 to 95%
same,IC50,L02,1.57 µM
same,Kq,Calf thymus DNA [2],5.92 ×10⁴ No_unit
same,Activity,DNA,Active
same,Kq,Quadruplex DNA [3],1.56 ×10⁷ No_unit
same,Kq,Quadruplex DNA [4],1.5 ×10⁷ No_unit
same,Activity,Quadruplex DNA [5],Active
same,Activity,Quadruplex DNA [6],Active
same,Activity,MGC-803 [7],44.73%
same,Activity,MGC-803 [8],52.87%
same,Activity,MGC-803 [9],3.76%
same,Activity,MGC-803 [10],23.02%
same,Activity,MGC-803 [11],31.82%
same,Activity,MGC-803 [12],51.5%
same,Activity,MGC-803 [13],Active
same,Activity,MGC-803 [14],Active
same,Activity,MGC-803 [15],inactive
same,Activity,MGC-803 [16],inactive
same,viability at 0.5 µM,MGC-803 [17],80.3%
same,Activity,MGC-803 [18],13.8%
same,Activity,MGC-803 [19],51.2%
same,Activity,MGC-803 [20],7.45%
same,Activity,MGC-803 [21],1.76%
same,Activity,MGC-803 [22],4.69%
same,Activity,MGC-803 [23],Active
same,Activity,MGC-803 [24],Active
same,Activity,MGC-803 [25],Active
same,Activity,MGC-803 [26],46.9%
same,Activity,MGC-803 [27],Active
same,Activity,MGC-803 [28],Dose-dependent effect
same,inhibition in vivo at 6 mg/kg,MGC-803 [29],31.2%
same,Activity,[30],Non-Toxic
same,Activity,Calf thymus DNA [31],10 nm
same,Activity,MGC-803 [32],8.74%
same,Activity,MGC-803 [33],Active
